# Assay results as given in patent US9499535B2, “Kinase inhibitors” (ORIGENIS GMBH, priority 2011, dated 2016).
# Target: T1, SYK kinase (Homo sapiens, UniProt P43405)
# T1 construct: purchased Invitrogen, Carlsbad
# Assay: SYK assay (OMNIA Kinase Assay, Invitrogen)
# Type: biochemical
# Conditions: apparent Ki calculated from the IC50 using the Cheng-Prusoff equation; 1 mM ATP, 10 μM Peptide Substrate; read-out: SYK Activities: Ki
# Protocol: In the assay OMNIA® KINASE ASSAY by Invitrogen Corporation (Carlsbad) the effect of invention of a compound on the phosphorylation is determined by measurement of fluorescence intensity of a chelation-enhanced fluorophore called SOX. Upon phosphorylation of the peptide by the kinase of interest, Mg2+ is chelated to form a bridge between the SOX moiety and the phosphate group that is transferred to the specific tyrosine on the peptide. The fluorescence intensity is directly proportional to the amount of peptide phosphorylation.
# To the wells of an 384 well small volume plate (Greiner, Frickenhausen) are added (i) the compound under test in 5% DMSO/distilled water (2 μl), (ii) 16 μl of the master mix containing ATP, DTT, Kinase Reaction Buffer, Omina Peptide Substrate Tyr 7 resulting in a final concentration of 1 mM ATP, 0.2 mM DTT and 10 μM Peptide Substrate.
# The Master Mix and the assay plate was incubated to reaction temperature before the measurement (30° C.). The reaction was started with addition of (iii) 2 μl 4 μg/ml SYK kinase (Invitrogen, Carlsbad). During measurement fluorescence intensitiy readings were collected using a TECAN M1000 at a wavelength of λex 360/λem 485 nm every 30 s for 30 minutes. The reaction velocity was plotted versus the inhibitor concentration to determine the IC50 using XLFit 5.0 (IDBS, Guildford) to fit to a sigmoidal dose response curve, and the apparent Ki values were calculated from the IC50 using the Cheng-Prusoff equation (Cheng, Y.; Prusoff, W. H. Biochem. Pharmacol. 22, 3099-3108, 1973).
row,Compound,Ki
1,"COc1ccc2nc(Nc3ccc(Oc4ccccc4)cc3)c3n[nH]cc3c2c1 [Example #159, (8-Methoxy-2H-pyrazolo[3,4-c]quinolin-4-yl)-(4-phenoxy-phenyl)-amine]",10 to 100 nM
2,"COc1ccc2c(c1)nc(Nc1ccc(N3CCN(C)CC3)cc1)c1n[nH]cc12 [Example #176, (7-Methoxy-2H-pyrazolo[3,4-c]quinolin-4-yl)-[4-(4-methyl-piperazin-1-yl)-phenyl]-amine]",10 to 100 nM
3,"COc1ccc2nc(Nc3ccc(N(C)C)c(C)c3)c3n[nH]cc3c2c1 [Example #178, N4-(8-Methoxy-2H-pyrazolo[3,4-c]quinolin-4-yl)-2,N1,N1-trimethyl-benzene-1,4-diamine]",10 to 100 nM
4,"COc1ccc2nc(Nc3ccc4c(c3)NC(=O)CN4)c3n[nH]cc3c2c1 [Example #182, 7-(8-Methoxy-2H-pyrazolo[3,4-c]quinolin-4-ylamino)-3,4-dihydro-1H-quinoxalin-2-one]",10 to 100 nM
5,"COc1ccc2nc(Nc3ccc(Cc4ccccc4)cc3)c3n[nH]cc3c2c1 [Example #190, (4-Benzyl-phenyl)-(8-methoxy-2H-pyrazolo[3,4-c]quinolin-4-yl)-amine]",100 to 1000 nM
6,"COc1ccc2nc(Nc3ccc(N4CCOCC4)cc3C)c3n[nH]cc3c2c1 [Example #191, (8-Methoxy-2H-pyrazolo[3,4-c]quinolin-4-yl)-(2-methyl-4-morpholin-4-yl-phenyl)-amine]",100 to 1000 nM
7,"N#Cc1ccc2nc(Nc3ccc4cn[nH]c4c3)c3n[nH]cc3c2c1 [Example #197, 4-(1H-Indazol-6-ylamino)-2H-pyrazolo[3,4-c]quinoline-8-carbonitrile]",< 10 nM
8,"COc1ccc(Nc2nc3ccccc3c3c(C(F)(F)F)[nH]nc23)cc1OC [Example #210, (3,4-Dimethoxy-phenyl)-(1-trifluoromethyl-2H-pyrazolo[3,4-c]quinolin-4-yl)-amine]",100 to 1000 nM
9,"CN1CCN(c2ccc(Nc3nc4ccccc4c4c(C(F)(F)F)[nH]nc34)cc2)CC1 [Example #211, [4-(4-Methyl-piperazin-1-yl)-phenyl]-(1-trifluoromethyl-2H-pyrazolo[3,4-c]quinolin-4-yl)-amine]",100 to 1000 nM
10,"FC(F)(F)c1[nH]nc2c(Nc3ccc4cn[nH]c4c3)nc3ccccc3c12 [Example #212, (1H-Indazol-6-yl)-(1-trifluoromethyl-2H-pyrazolo[3,4-c]quinolin-4-yl)-amine]",100 to 1000 nM
11,"COc1ccc(Nc2nc3ccccc3c3c([N+](=O)[O-])[nH]nc23)cc1OC [Example #213, (3,4-Dimethoxy-phenyl)-(1-nitro-2H-pyrazolo[3,4-c]quinolin-4-yl)-amine]",100 to 1000 nM
12,"CN1CCN(c2ccc(Nc3nc4ccccc4c4c([N+](=O)[O-])[nH]nc34)cc2)CC1 [Example #214, [4-(4-Methyl-piperazin-1-yl)-phenyl]-(1-nitro-2H-pyrazolo[3,4-c]quinolin-4-yl)-amine]",100 to 1000 nM
13,"N#Cc1ccc2nc(Nc3ccc(N4CCOCC4)cc3)c3n[nH]cc3c2c1 [Example #217, 4-(4-Morpholin-4-yl-phenylamino)-2H-pyrazolo[3,4-c]quinoline-8-carbonitrile]",< 10 nM
14,"COc1ccc(Nc2nc3snc(C)c3c3c[nH]nc23)cc1OC [Example #218, (3,4-Dimethoxy-phenyl)-(1-methyl-7H-3-thia-2,4,6,7-tetraaza-as-indacen-5-yl)-amine]",100 to 1000 nM
15,"Cc1nsc2nc(Nc3ccc4cn[nH]c4c3)c3n[nH]cc3c12 [Example #219, (1H-Indazol-6-yl)-(1-methyl-7H-3-thia-2,4,6,7-tetraaza-as-indacen-5-yl)-amine]",10 to 100 nM
16,"Cc1nsc2nc(Nc3ccc(N4CCN(C)CC4)cc3)c3n[nH]cc3c12 [Example #220, [4-(4-Methyl-piperazin-1-yl)-phenyl]-(1-methyl-7H-3-thia-2,4,6,7-tetraaza-as-indacen-5-yl)-amine]",100 to 1000 nM
17,"COc1ccc(Nc2nc3cc(C#N)ccc3c3c(C)[nH]nc23)cc1OC [Example #226, 4-(3,4-Dimethoxy-phenylamino)-1-methyl-2H-pyrazolo[3,4-c]quinoline-7-carbonitrile]",< 10 nM
18,"Cc1[nH]nc2c(Nc3ccc4cn[nH]c4c3)nc3cc(C#N)ccc3c12 [Example #227, 4-(1H-Indazol-6-ylamino)-1-methyl-2H-pyrazolo[3,4-c]quinoline-7-carbonitrile]",100 to 1000 nM
19,"COc1ccc2nc(Nc3ccc(C(=O)N4CCCC4)cc3)c3n[nH]cc3c2c1 [Example #231, [4-(8-Methoxy-2H-pyrazolo[3,4-c]quinolin-4-ylamino)-phenyl]-pyrrolidin-1-yl-methanone]",100 to 1000 nM

row,Compound,Ki
1,"COc1cccc2c1nc(Nc1ccc3c(c1)OCO3)c1n[nH]cc12 [Example #249, Benzo[1,3]dioxol-5-yl-(6-methoxy-2H-pyrazolo[3,4-c]quinolin-4-yl)-amine]",100 to 1000 nM
2,"CCN1CCN(c2ccc(Nc3nc4cc(OC)ccc4c4c[nH]nc34)cc2)CC1 [Example #260, [4-(4-Ethyl-piperazin-1-yl)-phenyl]-(7-methoxy-2H-pyrazolo[3,4-c]quinolin-4-yl)-amine]",10 to 100 nM
3,"COc1ccc2c(c1)nc(Nc1ccc3c(c1)OCCO3)c1n[nH]cc12 [Example #265, (2,3-Dihydro-benzo[1,4]dioxin-6-yl)-(7-methoxy-2H-pyrazolo[3,4-c]quinolin-4-yl)-amine]",10 to 100 nM
4,"COc1ccc2c(c1)nc(Nc1ccc3c(c1)OCO3)c1n[nH]cc12 [Example #267, Benzo[1,3]dioxol-5-yl-(7-methoxy-2H-pyrazolo[3,4-c]quinolin-4-yl)-amine]",10 to 100 nM
5,"COC(=O)c1scc2c1nc(Nc1ccc(OC)c(OC)c1)c1n[nH]cc12 [Example #275, 4-((3,4-dimethoxyphenyl)amino)-2H-pyrazolo[4,3-d]thieno[3,4-b]pyridine-6-carboxylic acid methyl ester]",100 to 1000 nM
6,"COc1ccc2nc(Nc3ccc(-c4ccc(C(=O)O)cc4)cc3)c3n[nH]cc3c2c1 [Example #288, 4′-((8-methoxy-2H-pyrazolo[3,4-c]quinolin-4-yl)amino)-[1,1′-biphenyl]-4-carboxylic acid]",100 to 1000 nM
7,"COc1ccc2nc(Nc3ccc(NC(=O)Nc4cccc(C)c4)cc3)c3n[nH]cc3c2c1 [Example #289, 1-(4-((8-methoxy-2H-pyrazolo[3,4-c]quinolin-4-yl)amino)phenyl)-3-(m-tolyl)urea]",10 to 100 nM
8,"COc1cc(OC)c2nc(Nc3ccc(NC(=O)Nc4cccc(C)c4)cc3)c3n[nH]cc3c2c1 [Example #297, 1-(4-((6,8-dimethoxy-2H-pyrazolo[3,4-c]quinolin-4-yl)amino)phenyl)-3-(m-tolyl)urea]",100 to 1000 nM
9,"COc1cc2nc(Nc3ccc(NC(=O)Nc4cccc(C)c4)cc3)c3n[nH]cc3c2cc1OC [Example #299, 1-(4-((7,8-dimethoxy-2H-pyrazolo[3,4-c]quinolin-4-yl)amino)phenyl)-3-(m-tolyl)urea]",100 to 1000 nM
10,"COc1ccc2nc(Nc3cccc(S(F)(F)(F)(F)F)c3)c3n[nH]cc3c2c1 [Example #309, 8-methoxy-N-(3-(pentafluorosulfanyl)phenyl)-2H-pyrazolo[3,4-c]quinolin-4-amine]",100 to 1000 nM
11,"COc1ccc2nc(Nc3ccc(F)c(F)c3)c3n[nH]cc3c2c1 [Example #311, N-(3,4-difluorophenyl)-8-methoxy-2H-pyrazolo[3,4-c]quinolin-4-amine]",10 to 100 nM
12,"COc1ccc2nc(Nc3cc(F)cc(F)c3)c3n[nH]cc3c2c1 [Example #315, N-(3,5-difluorophenyl)-8-methoxy-2H-pyrazolo[3,4-c]quinolin-4-amine]",100 to 1000 nM
13,"COc1ccc2nc(Nc3ccc([N+](=O)[O-])cc3)c3n[nH]cc3c2c1 [Example #318, 8-methoxy-N-(4-nitrophenyl)-2H-pyrazolo[3,4-c]quinolin-4-amine]",< 10 nM
14,"COc1ccc2nc(Nc3cccc(OC)c3OC)c3n[nH]cc3c2c1 [Example #331, N-(2,3-dimethoxyphenyl)-8-methoxy-2H-pyrazolo[3,4-c]quinolin-4-amine]",100 to 1000 nM
15,"COc1ccc(Nc2nc3ccc(OC)cc3c3c[nH]nc23)c(OC)c1 [Example #332, N-(2,4-dimethoxyphenyl)-8-methoxy-2H-pyrazolo[3,4-c]quinolin-4-amine]",100 to 1000 nM
16,"O=C1COc2ccc(Nc3nc4cc(F)ccc4c4cn[nH]c34)cc2N1 [Example #334, 6-((7-fluoro-3H-pyrazolo[3,4-c]quinolin-4-yl)amino)-2H-benzo[b][1,4]oxazin-3(4H)-one]",10 to 100 nM
17,"Fc1ccc2c(c1)nc(Nc1ccc(N3CCOCC3)cc1)c1[nH]ncc12 [Example #335, 7-fluoro-N-(4-morpholinophenyl)-3H-pyrazolo[3,4-c]quinolin-4-amine]",10 to 100 nM
18,"COc1ccc(Nc2nc3cc(F)ccc3c3cn[nH]c23)cc1OC [Example #336, N-(3,4-dimethoxyphenyl)-7-fluoro-3H-pyrazolo[3,4-c]quinolin-4-amine]",10 to 100 nM
19,"O=C(c1ccc(Nc2nc3cc(F)ccc3c3cn[nH]c23)cc1)N1CCCC1 [Example #342, (4-((7-fluoro-3H-pyrazolo[3,4-c]quinolin-4-yl)amino)phenyl)(pyrrolidin-1-yl)methanone]",100 to 1000 nM
